Data on three compounds can be found in patent US20110237448A1, “CARBOHYDRATE BINDING MODULE WITH AFFINITY FOR INSOLUBLE XYLAN” (The Board of Trustees of the University of Illinois, priority 2009, published 2011).

Changes are numbered by the printed parent chain. “Also recorded” adds a separate entry of the source.

Assay [1] deals with Fibrobacter succinogenes S85 FSUAxe6B truncational mutant TM5 (FPd-1 domain), SEQ ID NO: 2 (Fibrobacter succinogenes, UniProt C9RS24). Nature of the assay: Isothermal titration calorimetric (ITC) analysis of TM5 (FPd-1 domain). Type of assay: binding. The settings on record: 25° C., 100 μM protein, 50 mM Na2HPO4—HCl buffer pH 7.0, 100 mM NaCl. The method, then: Isothermal titration calorimetric analysis was conducted to determine whether the FPd-1 domain can bind to soluble substrates. TM5 was tested for binding with arabinoxylan, xylobiose, and xylopentaose (FIG. 10). If there is binding affinity between two materials, a binding heat that follows a pattern such as that for CaCl2 vs. EDTA in the positive control will be observed.
For isothermal titration calorimetric (ITC) analysis, measurements were performed at 25° C. using a VP-ITC calorimeter (MicroCal, Inc, Northhampton, Mass.) following the manufacturer's recommended procedures. All samples were extensively dialyzed against 50 mM Na2HPO4—HCl buffer (pH 7.0), 100 mM NaCl, and all ligands were dissolved in the same buffer. The protein sample (100 μM) was injected with successive 10-μl aliquots of ligand at 300-s intervals.

In assay [2] the target is T1, Fibrobacter succinogenes S85 FSUAxe6B variant E194A (Fibrobacter succinogenes, UniProt C9RS24, E194A).
T1 sequence (C9RS24 30-552 E194A): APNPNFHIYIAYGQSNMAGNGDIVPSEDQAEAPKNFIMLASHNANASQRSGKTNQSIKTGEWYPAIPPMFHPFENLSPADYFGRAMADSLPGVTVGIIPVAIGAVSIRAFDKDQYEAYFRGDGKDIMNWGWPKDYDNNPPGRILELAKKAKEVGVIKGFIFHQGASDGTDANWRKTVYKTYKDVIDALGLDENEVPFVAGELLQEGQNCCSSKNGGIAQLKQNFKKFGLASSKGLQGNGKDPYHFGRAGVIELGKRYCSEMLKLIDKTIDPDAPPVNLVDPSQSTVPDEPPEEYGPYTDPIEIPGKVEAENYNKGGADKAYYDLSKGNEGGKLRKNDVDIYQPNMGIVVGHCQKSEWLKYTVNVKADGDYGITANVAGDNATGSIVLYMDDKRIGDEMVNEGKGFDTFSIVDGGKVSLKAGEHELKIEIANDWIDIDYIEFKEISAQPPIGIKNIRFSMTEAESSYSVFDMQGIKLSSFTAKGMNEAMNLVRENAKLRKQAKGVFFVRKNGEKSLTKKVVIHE
Nature of the assay: Steady state kinetic analysis, E194A mutant. It is filed as biochemical. The settings on record: tetra-acetyl-xylopyranoside as substrate, 37° C., 2 μM E194A protein. The protocol: (§1) Site-directed mutagenesis—Site-directed mutagenesis was carried out using the QuikChange Multi Site-Directed Mutagenesis Kit (Stratagene), according to the manufacturer's instructions.
(§2) Enzyme assays and steady state kinetics—Acetylxylan esterase activity was assayed using tetra-acetyl-xylopyranoside (Toronto Research Chemicals Inc., Ontario, Canada) for all proteins in this study, and the released of acetic acid was measured using an acetic acid detection kit (Megazyme, Bray, Ireland) following the manufacturer's instructions. The reduction of NADH was monitored continuously at an absorbance of 340 nm using Synergy 2 Microplate reader (BioTek, Winooski, Vt.) using the path-length correction feature. All assays were carried out at 37° C. […] The concentrations of the ingredients R1 and R2 solutions were pre-determined by the manufacturer (Megazyme). […] For active-site mutants with lower activity, the kinetic parameters were determined at a concentration of 10 μM for E194N protein and 2 μM for E194A, D270N, and D270A proteins, respectively. Initial rates were plotted against the tetra-acetyl-xylopyranoside concentrations, and the kinetic parameters were determined by Michaelis-Menten equation utilizing Graph Pad Prism v5.01.

In assay [3] the test system is Fibrobacter succinogenes S85 acetylxylan esterase Axe6A. The note with it: from ref. 16; substrate not stated at the place; cited from earlier work.
In assay [4] the target is T2, Fibrobacter succinogenes S85 FSUAxe6B truncational mutant TM1 (CE6+CBM6) (Fibrobacter succinogenes, UniProt C9RS24).
T2 construct: primers F1/R2, modified pET-28a, E. coli BL21(DE3), purified
T2 sequence (C9RS24 30-479 limits assumed): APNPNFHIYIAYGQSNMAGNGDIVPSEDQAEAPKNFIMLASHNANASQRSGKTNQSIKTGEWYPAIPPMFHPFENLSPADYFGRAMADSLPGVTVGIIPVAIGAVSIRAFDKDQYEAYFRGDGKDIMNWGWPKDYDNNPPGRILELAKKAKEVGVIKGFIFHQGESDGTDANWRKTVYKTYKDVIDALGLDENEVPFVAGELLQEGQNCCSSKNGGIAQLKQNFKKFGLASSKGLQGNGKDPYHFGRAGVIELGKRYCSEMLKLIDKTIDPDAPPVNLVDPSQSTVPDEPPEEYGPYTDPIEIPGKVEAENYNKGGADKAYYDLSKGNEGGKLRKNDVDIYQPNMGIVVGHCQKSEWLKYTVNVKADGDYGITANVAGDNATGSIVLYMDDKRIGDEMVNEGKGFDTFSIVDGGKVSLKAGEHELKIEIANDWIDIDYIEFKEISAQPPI
Nature of the assay: Steady state kinetic analysis, truncational mutant TM1. It is filed as biochemical. The note with it: tetra-acetyl-xylopyranoside as substrate, 37° C. An excerpt: (§3) To delineate and investigate the modules present in FSUAxe6B for functional role assignments, a gene truncation strategy was adopted. To create the truncated proteins, the glycines in loop regions were selected as the terminal amino acids of our constructs. The construct TM1 (CE6+CBM6) was designed to investigate the contribution of FPd-1 to the wild-type (WT) protein in terms of its catalytic (esterase) and carbohydrate binding activities. Likewise, TM2 (CE6) was constructed for identifying the role of the putative CBM6 on the two potential functions of the protein. […]
(§4) Assays were carried out at 37° C. […] The concentrations of the ingredients R1 and R2 solutions were pre-determined by the manufacturer (Megazyme). […] Initial rates were plotted against the tetra-acetyl-xylopyranoside concentrations, and the kinetic parameters were determined by Michaelis-Menten equation utilizing Graph Pad Prism v5.01.
(§5) Enzyme assays and steady state kinetics—Acetylxylan esterase activity was assayed using tetra-acetyl-xylopyranoside (Toronto Research Chemicals Inc., Ontario, Canada) for all proteins in this study, and the released of acetic acid was measured using an acetic acid detection kit (Megazyme, Bray, Ireland) following the manufacturer's instructions. […] The concentrations of the ingredients R1 and R2 solutions were pre-determined by the manufacturer (Megazyme). […]

Assay [5] concerns the target T3, Fibrobacter succinogenes S85 acetylxylan esterase FSUAxe6B (Axe6B, FSU2267), wild-type (WT), SEQ ID NO: 31 (Fibrobacter succinogenes, UniProt C9RS24).
T3 sequence (C9RS24 30-552): T1 sequence (C9RS24 30-552 E194A) with A165E
Nature of the assay: Steady state kinetic analysis of acetylxylan esterase activity, FSUAxe6B wild-type (WT). Type of assay: biochemical. The settings on record: tetra-acetyl-xylopyranoside as substrate, 37° C. The method, then: Assays were carried out at 37° C. Five microliters of 1 μM enzyme and 20 μl of R2 enzyme solution (containing acetate kinase, pyruvate kinase, and […] in 100 mM Tris-HCl, pH 7.4, 3 mM MgCl2) were thoroughly mixed. The tetra-acetyl-xylopyranoside was prepared in […] of R1 solution (NADH, ATP, phospho-enol-pyruvate, and pyruvate). The concentrations of the ingredients R1 and R2 solutions were pre-determined by the manufacturer (Megazyme). Both solutions were incubated separately at 37° C. for 3 min to allow equilibration, and then mixed to start the reaction. Initial rates were plotted against the tetra-acetyl-xylopyranoside concentrations, and the kinetic parameters were determined by Michaelis-Menten equation utilizing Graph Pad Prism v5.01.
Enzyme assays and steady state kinetics—Acetylxylan esterase activity was assayed using tetra-acetyl-xylopyranoside (Toronto Research Chemicals Inc., Ontario, Canada) for all proteins in this study, and the released of acetic acid was measured using an acetic acid detection kit (Megazyme, Bray, Ireland) following the manufacturer's instructions. The reduction of NADH was monitored continuously at an absorbance of 340 nm using Synergy 2 Microplate reader (BioTek, Winooski, Vt.) using the path-length correction feature. All assays were carried out at 37° C. […]

Assay [6] deals with T4, Fibrobacter succinogenes S85 FSUAxe6B variant D270A (Fibrobacter succinogenes, UniProt C9RS24, D270A).
T4 sequence (C9RS24 30-552 D270A): T1 sequence (C9RS24 30-552 E194A) with A165E, D241A
Nature of the assay: Steady state kinetic analysis, D270A mutant. It is filed as biochemical. The note with it: tetra-acetyl-xylopyranoside as substrate, 37° C., 2 μM D270A protein. The method, then: as §1, §2

Assay [7] has as its target T5, Fibrobacter succinogenes S85 FSUAxe6B truncational mutant TM2 (CE6) (Fibrobacter succinogenes, UniProt C9RS24).
T5 construct: primers F1/R3, modified pET-28a, E. coli BL21(DE3), purified
T5 sequence (C9RS24 30-297): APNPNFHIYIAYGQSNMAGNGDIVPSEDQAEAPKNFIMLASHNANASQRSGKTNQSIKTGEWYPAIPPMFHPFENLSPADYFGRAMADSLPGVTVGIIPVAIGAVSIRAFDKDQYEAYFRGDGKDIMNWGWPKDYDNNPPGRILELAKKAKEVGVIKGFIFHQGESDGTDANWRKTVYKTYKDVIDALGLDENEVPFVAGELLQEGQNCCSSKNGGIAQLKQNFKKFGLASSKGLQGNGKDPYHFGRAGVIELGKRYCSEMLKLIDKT
Nature of the assay: Steady state kinetic analysis, truncational mutant TM2. It is filed as biochemical. The settings on record: tetra-acetyl-xylopyranoside as substrate, 37° C., means ± standard errors.
Source text: as §3, §4, §5

In assay [8] the target is T6, Fibrobacter succinogenes S85 FSUAxe6B variant E194N (Fibrobacter succinogenes, UniProt C9RS24, E194N).
T6 sequence (C9RS24 30-552 E194N): T1 sequence (C9RS24 30-552 E194A) with A165N
Nature of the assay: Steady state kinetic analysis, E194N mutant. Type of assay: biochemical. The note with it: tetra-acetyl-xylopyranoside as substrate, 37° C., 10 μM E194N protein. The method, then:
as §1, §2

The subject of assay [9] is Fibrobacter succinogenes S85 acetylxylan esterase Axe6B. The settings on record: comparison with Axe6A; substrate not stated at the place; cited from earlier work.

Take `OC1OC[C@@H](O[C@@H]2OC[C@@H](O)[C@H](O)[C@H]2O)[C@H](O)[C@H]1O` (some centres unmarked) [xylobiose]: in assay [1], the ITC binding entry is given as “no significant peaks were observed; also recorded: does not bind”.
For `OC1OC[C@@H](O[C@@H]2OC[C@@H](O[C@@H]3OC[C@@H](O[C@@H]4OC[C@@H](O[C@@H]5OC[C@@H](O)[C@H](O)[C@H]5O)[C@H](O)[C@H]4O)[C@H](O)[C@H]3O)[C@H](O)[C@H]2O)[C@H](O)[C@H]1O` (some centres unmarked) [xylopentaose], the ITC binding result in [1] is recorded as “no significant peaks were observed; also recorded: does not bind”.
Broadly, the kcat is the number of substrate molecules converted per active site and unit of time at saturation. Usually kcat/Km stands for the second-order rate constant that governs catalysis at low substrate concentration. As usually defined, the Km is the concentration of substrate that gives half-maximal velocity. Consider `CC(=O)O[C@@H]1OC[C@@H](OC(C)=O)[C@H](OC(C)=O)[C@H]1OC(C)=O` [tetra-acetyl-xylopyranoside], for which the kcat in assay [2] was found to be 2.9 s⁻¹; in assay [5] (means ± standard errors), 15 s⁻¹; in [6] it was 1.8 s⁻¹; in [7], 13 s⁻¹; in assay [8], 2.8 s⁻¹. In addition, the kcat/Km in assay [2] worked out at 14000 M⁻¹ s⁻¹; in assay [4], 170000 M⁻¹ s⁻¹; in assay [5], 190000 M⁻¹ s⁻¹; in assay [6] it was 9000 M⁻¹ s⁻¹; in [8], 400 M⁻¹ s⁻¹. For the same compound, the Km was 80 µM in [3] and 60 µM in assay [9].
